# Test results as given in US20260317324A1, “BIFUNCTIONAL COMPOUNDS FOR DEGRADING BRAF VIA UBIQUITIN PROTEOSOME PATHWAY” (Nurix Therapeutics, Inc., priority 2023, published 2026).
# What was measured:
# Assay type in all cases: cell-based
# BRAF G466V = target: T1, BRAF G466V (Homo sapiens, UniProt P15056, G466V); test: BRAF HiBiT degradation assay, C-terminal HiBiT-tagged BRAF G466V overexpressed in HCT-116 BRAF−/− cells (clone 8), Nano-Glo HiBiT Lytic assay
# T1 construct: Horizon Discovery (HCT-116 BRAF−/− cells); host or cells: HCT-116 BRAF−/− cells, clone 8, lentiviral transduction
# T1 sequence (P15056 whole entry G466V): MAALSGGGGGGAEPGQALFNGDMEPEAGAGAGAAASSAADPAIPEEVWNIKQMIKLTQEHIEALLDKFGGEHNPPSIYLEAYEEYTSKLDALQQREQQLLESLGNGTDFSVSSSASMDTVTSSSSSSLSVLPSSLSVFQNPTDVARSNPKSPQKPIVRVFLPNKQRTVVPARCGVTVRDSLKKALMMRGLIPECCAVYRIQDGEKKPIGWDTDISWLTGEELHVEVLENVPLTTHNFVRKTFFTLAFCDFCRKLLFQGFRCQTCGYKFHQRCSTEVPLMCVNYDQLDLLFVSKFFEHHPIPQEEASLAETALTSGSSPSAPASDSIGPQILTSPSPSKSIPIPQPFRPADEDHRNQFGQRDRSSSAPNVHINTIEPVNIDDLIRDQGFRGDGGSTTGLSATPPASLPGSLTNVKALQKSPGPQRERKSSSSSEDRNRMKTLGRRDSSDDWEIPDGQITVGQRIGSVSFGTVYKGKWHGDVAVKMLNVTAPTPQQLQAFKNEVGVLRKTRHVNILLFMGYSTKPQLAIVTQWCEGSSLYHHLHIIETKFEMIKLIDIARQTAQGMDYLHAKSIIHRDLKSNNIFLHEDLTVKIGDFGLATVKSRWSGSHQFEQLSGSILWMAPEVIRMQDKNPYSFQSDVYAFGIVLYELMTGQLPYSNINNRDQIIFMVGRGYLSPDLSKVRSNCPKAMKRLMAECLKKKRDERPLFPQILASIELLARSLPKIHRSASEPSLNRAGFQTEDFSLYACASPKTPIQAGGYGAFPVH
# In short: (§1)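 HCT-116 BRAF−/− cells stably expressing the tagged mutant were seeded at 3,000 cells/well and grown 24 h at 37 °C before an 11-point half-log series from 1 μM to 0.01 nM, run in duplicate at 0.2% DMSO. Lytic HiBiT luminescence gave % protein remaining versus DMSO controls; DC50 was the fitted concentration at 50%.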
# BRAF V600E = target: T2, BRAF V600E (Homo sapiens, UniProt P15056, V600E); test: BRAF HiBiT degradation assay, C-terminal HiBiT-tagged BRAF V600E A375 cells (clone 1F10), Nano-Glo HiBiT Lytic assay; details: for Dmax: A-375
# T2 construct: endogenous C-terminal HiBiT fusion tag on BRAF V600E allele; endogenous in cells; host or cells: A375 clone 1F10 (CRISPR-Cas9 knock-in of the HiBiT tag; parental A375 from ATCC)
# T2 sequence (P15056 whole entry V600E, the tested form may be a part): as the sequence (P15056 whole entry G466V) above, with V466G, V600E counted along it
# In short: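 A375 cells with CRISPR knock-in C-terminal HiBiT on endogenous BRAF V600E (clone 1F10) were seeded and cultured 24 h at 37 °C, then dosed with an 11-point half-log series (1 μM to 0.01 nM, duplicate, 0.2% DMSO). Lytic HiBiT luminescence gave % protein remaining; DC50 was the fitted concentration at 50%.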
# BRAF G469A = target: T3, BRAF G469A (Homo sapiens, UniProt P15056, G469A); test: BRAF HiBiT degradation assay, C-terminal HiBiT-tagged BRAF G469A overexpressed in HCT-116 BRAF−/− cells (clone 34), Nano-Glo HiBiT Lytic assay
# T3 construct: Horizon Discovery (HCT-116 BRAF−/− cells); host or cells: HCT-116 BRAF−/− cells, clone 34, lentiviral transduction
# T3 sequence (P15056 whole entry G469A): as the sequence (P15056 whole entry G466V) above, with V466G, G469A counted along it
# In short: as §1
# BRAF D594G = target: T4, BRAF D594G (Homo sapiens, UniProt P15056, D594G); test: BRAF HiBiT degradation assay, C-terminal HiBiT-tagged BRAF D594G overexpressed in HCT-116 BRAF−/− cells (clone 63), Nano-Glo HiBiT Lytic assay
# T4 construct: Horizon Discovery (HCT-116 BRAF−/− cells); host or cells: HCT-116 BRAF−/− cells, clone 63, lentiviral transduction
# T4 sequence (P15056 whole entry D594G): as the sequence (P15056 whole entry G466V) above, with V466G, D594G counted along it
# In short: as §1
# [1] = BRAF G466V, DC50 at 50%: fitted conc. at Y=50
# [2] = HCT-116, BRAF G466V, percentage protein degraded at maximal compound effect relative to DMSO
# [3] = A375 (BRAF V600E), DC50 at 50%: fitted conc. at Y=50
# [4] = A375 (BRAF V600E), percentage protein degraded at maximal compound effect relative to DMSO
# [5] = Class 2, BRAF G469A, DC50 at 50%: fitted conc. at Y=50
# [6] = HCT-116, Class 2, BRAF G469A, percentage protein degraded at maximal compound effect relative to DMSO
# [7] = BRAF D594G, DC50 at 50%: fitted conc. at Y=50
# [8] = HCT-116, BRAF D594G, percentage protein degraded at maximal compound effect relative to DMSO
# [9] = BRAF G466V (Class 3), HCT-116 BRAF−/− cells, DC50 at 50% degradation
# [10] = BRAF G466V (Class 3), HCT-116 BRAF−/− cells, observed Dmax relative to DMSO control
# [11] = A375 (BRAF V600E, Class 1), DC50 at 50% degradation
# [12] = A375 (BRAF V600E, Class 1), observed Dmax, % protein degraded relative to DMSO control
# [13] = BRAF G469A (Class 2), HCT-116 BRAF−/− cells, DC50 at 50% degradation
# [14] = BRAF G469A (Class 2), HCT-116 BRAF−/− cells, observed Dmax relative to DMSO control
# [15] = BRAF D594G (Class 3), HCT-116 BRAF−/− cells, DC50 at 50% degradation
# [16] = BRAF D594G (Class 3), HCT-116 BRAF−/− cells, observed Dmax relative to DMSO control
DC50 (BRAF G466V; [1]),Dmax (BRAF G466V; [2]),DC50 (BRAF V600E; [3]),Dmax (BRAF V600E; [4]),DC50 (BRAF G469A; [5]),Dmax (BRAF G469A; [6]),DC50 (BRAF D594G; [7]),Dmax (BRAF D594G; [8]),DC50 (BRAF G466V; [9]),Dmax (BRAF G466V; [10]),DC50 (BRAF V600E; [11]),Dmax (BRAF V600E; [12]),DC50 (BRAF G469A; [13]),Dmax (BRAF G469A; [14]),DC50 (BRAF D594G; [15]),Dmax (BRAF D594G; [16]),Structure (SMILES)
> 500 nM,< 30%,< 10 nM,> 70%,> 500 nM,< 30%,> 500 nM,30 to 70%,,,,,,,,,"CCCS(=O)(=O)Nc1cccc(-c2nc(C(C)(C)C)sc2-c2ccnc(Nc3cnn(CC4CCN(C(=O)CN5CCc6cc(C7CCC(=O)NC7=O)ccc6C5)CC4)c3)n2)c1F (racemic) [Compound 119, Rac-N-[3-(2-tert-butyl-5-{2-[(1-{[1-(2-{6-[(3R)-2,6-dioxopiperidin-3-yl]-1,2,3,4-tetrahydroisoquinolin-2-yl}acetyl)piperidin-4-yl]methyl}-1H-pyrazol-4-yl)amino]pyrimidin-4-yl}-1,3-thiazol-4-yl)-2-fluorophenyl]propane-1-sulfonamide]"
> 500 nM,30 to 70%,10 to 50 nM,> 70%,> 500 nM,< 30%,> 500 nM,30 to 70%,,,,,,,,,"CCCS(=O)(=O)Nc1cccc(-c2nc(C3CCN(CC4CCN(C[C@H]5CC[C@H](Oc6ccc(C7CCC(=O)NC7=O)cc6)CC5)CC4)CC3)sc2-c2ccnc(N)n2)c1F (mixture of isomers) [Compound 225, N-{3-[5-(2-aminopyrimidin-4-yl)-2-{1-[(1-{[(1r,4r)-4-{4-[(3RS)-2,6-dioxopiperidin-3-yl]phenoxy}cyclohexyl]methyl}piperidin-4-yl)methyl]piperidin-4-yl}-1,3-thiazol-4-yl]-2-fluorophenyl}propane-1-sulfonamide]"
,,,,,,,,< 10 nM,> 70%,< 10 nM,> 70%,10 to 50 nM,> 70%,< 10 nM,30 to 70%,"C[C@@H]1CN(c2ccc(-n3cc(-c4cc(Cl)cc(NS(=O)(=O)N5CCCC5)c4F)c(-c4ccncc4)n3)cc2)CCN1CC1CCN(c2ccc([C@H]3CCC(=O)NC3=O)cc2)CC1 [Compound 316, N-[5-chloro-3-(1-{4-[(3R)-4-[(1-{4-[(3R)-2,6-dioxopiperidin-3-yl]phenyl}piperidin-4-yl)methyl]-3-methylpiperazin-1-yl]phenyl}-3-(pyridin-4-yl)-1H-pyrazol-4-yl)-2-fluorophenyl]pyrrolidine-1-sulfonamide]"
> 500 nM,< 30%,50 to 500 nM,30 to 70%,> 500 nM,< 30%,> 500 nM,< 30%,,,,,,,,,"CCCS(=O)(=O)Nc1cccc(-c2nc(C(C)(C)C)sc2-c2ccnc(Nc3ccc(C4CCN(CC5CCN(c6ccc(C(=O)NC7CCC(=O)NC7=O)cc6)CC5)CC4)cc3)n2)c1F (racemic) [Compound 171, Rac-4-{4-[(4-{4-[(4-{2-tert-butyl-4-[2-fluoro-3-(propane-1-sulfonamido)phenyl]-1,3-thiazol-5-yl}pyrimidin-2-yl)amino]phenyl}piperidin-1-yl)methyl]piperidin-1-yl}-N-[(3R)-2,6-dioxopiperidin-3-yl]benzamide]"
,,,,,,,,< 10 nM,> 70%,10 to 50 nM,> 70%,10 to 50 nM,> 70%,< 10 nM,> 70%,"O=C1CCC(c2ccc(N3CCC(F)(CN4CCN(c5ccc(-n6cc(-c7cc(Cl)cc(NS(=O)(=O)N8CCCC8)c7F)c(-c7ccncc7)n6)cc5)CC4)CC3)cc2)C(=O)N1 (racemic) [Compound 284, Rac-N-{5-chloro-3-[1-(4-{4-[(1-{4-[(3R)-2,6-dioxopiperidin-3-yl]phenyl}-4-fluoropiperidin-4-yl)methyl]piperazin-1-yl}phenyl)-3-(pyridin-4-yl)-1H-pyrazol-4-yl]-2-fluorophenyl}pyrrolidine-1-sulfonamide]"
> 500 nM,< 30%,< 10 nM,> 70%,> 500 nM,< 30%,> 500 nM,30 to 70%,,,,,,,,,"CCCS(=O)(=O)Nc1cccc(-c2nc(C(C)(C)C)sc2-c2ccnc(Nc3ccc(C4CCN(C(=O)C5CN(c6ccc(C7CCC(=O)NC7=O)cn6)C5)CC4)cc3)n2)c1F (racemic) [Compound 159, Rac-N-(3-{2-tert-butyl-5-[2-({4-[1-(1-{5-[(3R)-2,6-dioxopiperidin-3-yl]pyridin-2-yl}azetidine-3-carbonyl)piperidin-4-yl]phenyl}amino)pyrimidin-4-yl]-1,3-thiazol-4-yl}-2-fluorophenyl)propane-1-sulfonamide]"
> 500 nM,< 30%,10 to 50 nM,30 to 70%,> 500 nM,< 30%,> 500 nM,< 30%,,,,,,,,,"CCCS(=O)(=O)Nc1cccc(-c2nc(C(C)(C)C)sc2-c2ccnc(Nc3ccc4c(c3)CCN(C(=O)CN3CCC(c5ccc(NC6CCC(=O)NC6=O)cc5)CC3)C4)n2)c1F (racemic) [Compound 123, Rac-N-[3-(2-tert-butyl-5-{2-[(2-{2-[4-(4-{[(3R)-2,6-dioxopiperidin-3-yl]amino}phenyl)piperidin-1-yl]acetyl}-1,2,3,4-tetrahydroisoquinolin-6-yl)amino]pyrimidin-4-yl}-1,3-thiazol-4-yl)-2-fluorophenyl]propane-1-sulfonamide]"
> 500 nM,30 to 70%,< 10 nM,> 70%,> 500 nM,30 to 70%,< 10 nM,30 to 70%,,,,,,,,,"CCCS(=O)(=O)Nc1cccc(-c2nc(C3CCC4(CC3)CCN(C(=O)C3CCN(c5ccc6c(c5)C(=O)N(C5CCC(=O)NC5=O)C6=O)CC3)CC4)sc2-c2ccnc(N)n2)c1F (racemic) [Compound 245, Rac-N-{3-[5-(2-aminopyrimidin-4-yl)-2-[3-(1-{2-[(3R)-2,6-dioxopiperidin-3-yl]-1,3-dioxo-2,3-dihydro-1H-isoindol-5-yl}piperidine-4-carbonyl)-3-azaspiro[5.5]undecan-9-yl]-1,3-thiazol-4-yl]-2-fluorophenyl}propane-1-sulfonamide]"
,,,,,,,,< 10 nM,> 70%,10 to 50 nM,> 70%,10 to 50 nM,> 70%,< 10 nM,> 70%,"O=C1CC[C@H](c2ccc(N3CCC(CN4CCN(c5ccc(-n6cc(-c7cc(Cl)cc(NS(=O)(=O)N8CCCC8)c7F)c(-c7ccncc7)n6)cc5F)CC4)CC3)cc2)C(=O)N1 [Compound 364, N-{5-chloro-3-[1-(4-{4-[(1-{4-[(3R)-2,6-dioxopiperidin-3-yl]phenyl}piperidin-4-yl)methyl]piperazin-1-yl}-3-fluorophenyl)-3-(pyridin-4-yl)-1H-pyrazol-4-yl]-2-fluorophenyl}pyrrolidine-1-sulfonamide]"
,,,,,,,,10 to 50 nM,> 70%,< 10 nM,> 70%,10 to 50 nM,30 to 70%,< 10 nM,> 70%,"CCN(C)S(=O)(=O)Nc1cc(Cl)cc(-c2cn(-c3ccc(N4CCN(CC5CCN(c6ccc([C@H]7CCC(=O)NC7=O)cn6)CC5)CC4)cn3)nc2-c2ccncc2)c1F [Compound 314, (3R)-3-(6-{4-[(4-{6-[4-(5-chloro-3-{[ethyl(methyl)sulfamoyl]amino}-2-fluorophenyl)-3-(pyridin-4-yl)-1H-pyrazol-1-yl]pyridin-3-yl}piperazin-1-yl)methyl]piperidin-1-yl}pyridin-3-yl)piperidine-2,6-dione]"
